The test system of one data set is Cytochrome P450. Also on record: species or system Wistar rats. Particulars: rat, in vivo. An excerpt:
Moreover, each group of animals was sacrificed after 1 day, 1 week, 1 and 3 months, respectively. The animals were anesthetized with isoflurane and the spleen, kidneys, liver and heart were then removed and stored for histological studies. Four livers were also used to perform a microsomal extraction in order to measure the activation of cytochrome P450.
Cytochrome P450 is an enzyme associated with the […] of the smooth endoplasmic reticulum, which is highly involved in the degradation of exogenous molecules. This enzyme has very low substrate specificity and is capable of catalyzing the transformation of newly synthesized compounds such as medicaments. The majority of the P450 cytochromes can be induced or repressed, at the transcriptional level, by various xenobiotics; this is often the cause of side effects of medicaments. Assaying this enzyme makes it possible to determine whether the MOF material used is metabolized by cytochrome P450, in which case it will activate or inhibit its activity.
The amount of cytochrome can be interpreted only on condition that it has been related to the total amount of protein contained in each sample. Assay of the protein contained in the sample was performed by means of a BCA kit supplied by Pierce (batch #HI106096). […]

For another data set, the system named is Female Wistar rats. Particulars: rat, in vivo. As to the method: The animals used for the experiment are […] female Wistar rats weighing 161.36±16.1 g.
All the tests were performed in the animal house of the University Pharmacy school under temperature and humidity conditions, and after 3 days of adapting the animals to the animal house (3 days).
For the acute toxicity tests, a single intrajugular injection of the materials MIL-88A (150 and 500 nm), MIL-88Bt (50 and 140 nm) or 5% glucose (control group) is performed on 4 groups (at 1 day, 1 week, 1 month and 3 months, respectively) of 8 rats chosen at random and anesthetized with isoflurane.
The change in weight and the behavior of the animals were monitored. […]
Moreover, each group of animals was sacrificed after 1 day, 1 week, 1 and 3 months, respectively. The animals were anesthetized with isoflurane and the spleen, kidneys, liver and heart were then removed and stored for histological studies. Four livers were also used to perform a microsomal extraction in order to measure the activation of cytochrome P450. […]

For data set [1] the following is noted: 20° C.; cited from earlier work.
Data set [2] in a line: Solubility of busulfan in various solvents. It counts as physicochemical. An excerpt:
The solvents chosen for the impregnation are those in which busulfan has appreciable solubility (acetone, acetonitrile, chloroform, dichloromethane, dimethyl carbonate) (Table 18).

The test system of a further data set is rats. Particulars: cited from earlier work.

The source of these data is patent publication US20100226991A1, “SOLID INORGANIC/ORGANIC HYBRID WITH MODIFIED SURFACE” (CENTRE NATIONAL DE LA RECHERCHE SCIENTIFIQUE - CNRS-, priority 2007, published 2010).

≈ marks a conversion by molar mass, not a printed value. Some results are limits rather than exact numbers.

For the molecule “Fe3O[O2C—C6(CH3)4—CO2]3.OH.nH2O [MIL-88Bt]”, the “metabolism by cytochrome P450 (cytochrome activity vs glucose control)” value with Cytochrome P450 was “does not appear to be metabolized by Cyp450”. In addition, in the data set on Female Wistar rats, the liver weight entry is recorded as “the weight remains high”, the seric iron result was “recovered a seric iron concentration comparable to that of the control group”, the “signs of severe toxicity” value is listed as “do not induce any sign of severe toxicity” and the “weight change of the animals” value is “does not produce a significant variation in weight over time”.

As for `COc1ccc(C(=O)c2ccccc2)c(O)c1` [Benzophenone-3, 2-hydroxy-4-methoxybenzophenone], the solubility in water in data set [1] was 3.7 µg/mL (≈ 0.0162 mM).

A word on the solubility: it is how much of the substance goes into solution per volume. With `CS(=O)(=O)OCCCCOS(C)(=O)=O` [busulfan, 1,4-butanediol dimethylsulfonate], the solubility in data set [2] (acetone, organic solvent or mixture) is 20000 µg/mL; in data set [2] (acetonitrile, organic solvent or mixture), 30000 µg/mL; in data set [2] (chloroform, organic solvent or mixture) it was 8000 µg/mL; in data set [2] (dichloromethane, organic solvent or mixture), 10000 µg/mL; in data set [2] (dimethyl carbonate, organic solvent or mixture), 13000 µg/mL; in data set [2] (ethanol, organic solvent or mixture), below 4000 µg/mL. Moreover, the solubility in data set [2] (ether, organic solvent or mixture) is below 4000 µg/mL; in data set [2] (ethyl acetate, organic solvent or mixture) it was 6600 µg/mL; in data set [2] (hexane, organic solvent or mixture), below 4000 µg/mL; in data set [2] (methanol, organic solvent or mixture), below 4000 µg/mL; in data set [2] (tetrahydrofuran, organic solvent or mixture), around 5000 µg/mL; in data set [2] (toluene, organic solvent or mixture), around 4000 µg/mL. The same molecule returned a solubility in data set [2] (water) of 100 µg/mL.

For the molecule `[Cl][Zr]([Cl])([Cl])[Cl]` [ZrCl4], the “oral lethal dose 50 (LD50)” value in the data set with rats is 1700 mg/kg.

With `COc1cc(O)c(C(=O)c2ccccc2)cc1S(=O)(=O)O` [Benzophenone-4, 2-hydroxy-4-methoxybenzophenone-5-sulfonic acid], the solubility in water in data set [1] is 100000 µg/mL (≈ 324 mM).

As to Fe3O[O2C—C2H2—CO2]3.X.nH2O [MIL-88A], the “metabolism by cytochrome P450 (cytochrome activity vs glucose control)” value in the data set on Cytochrome P450 is given as “not metabolized by Cyp450”. In the data set with Female Wistar rats, the liver weight result was “returns to normal for MIL-88A after 3 months”, the seric iron entry was “recovered a seric iron concentration comparable to that of the control group”, the “signs of severe toxicity” value is given as “do not induce any sign of severe toxicity” and the “weight change of the animals” value is “does not produce a significant variation in weight over time”.
